Experimental data reported in patent publication US20070141091A1, “BIGUANIDE OINTMENT AND METHOD OF TREATMENT AND PREVENTION OF INFECTIONS” (priority 2005, published 2007).

Experiments:
[1] = tested on: Herpes simplex virus type 1; assay: HSV-1 Viral Suspension Assay; type: cell-based
Description: (§1) The Viral Suspension Assay was used to evaluate the antiviral properties of Alexidine against Herpes simplex virus type 1 when exposed in suspension for 1, 2, 5, and 10 minutes. The presence of virus (infectivity) was determined by monitoring the virus specific cytopathic effect (CPE) on an appropriate indicator cell line, rabbit kidney. Results are reported as Percent (%) Reduction in virus titer as compared to the corresponding virus control titer (Table 1). The titer of the virus controls were 7.5 log10 following the one minute exposure time; 7.0 log10 following the two minute exposure time; and 7.75 log10 following both the five and ten minute exposure times.

[2] = tested on: Adenovirus Type-8; assay: Viral Suspension Assay, Adenovirus Type-8; type: cell-based
Description: as §1, with “Adenovirus Type-4, Adenovirus Type-8 and Adenovirus Type-19 and Cytomegalovirus” for “Herpes simplex virus type 1”

[3] = tested on: Adenovirus Type-4; assay: Viral Suspension Assay, Adenovirus Type-4; type: cell-based
Description: as §1, with “Adenovirus Type-4, Adenovirus Type-8 and Adenovirus Type-19 and Cytomegalovirus” for “Herpes simplex virus type 1”

[4] = tested on: Adenovirus Type-19; assay: Viral Suspension Assay, Adenovirus Type-19; type: cell-based; conditions: for Percent Reduction (%) Adenovirus type 19: 1, 2, 5 and 10 minutes exposure
Description: as §1, with “Adenovirus Type-4, Adenovirus Type-8 and Adenovirus Type-19 and Cytomegalovirus” for “Herpes simplex virus type 1”

[5] = tested on: Cytomegalovirus; assay: Viral Suspension Assay, Cytomegalovirus; type: cell-based
Description: as §1, with “Adenovirus Type-4, Adenovirus Type-8 and Adenovirus Type-19 and Cytomegalovirus” for “Herpes simplex virus type 1”

[6] = tested on: Acanthamoeba keratitis; conditions: in combination with propamidine isothionate (Brolene), hexamidine (Desomodine), or neomycin; cited from earlier work
[7] = tested on: Acanthamoeba keratitis; conditions: bilateral case, one treatment per eye; cited from earlier work
[8] = tested on: experimental Aspergillus keratitis; conditions: 0.02%; cited from earlier work
[9] = Alexidine 30 ppm, 2 minutes exposure
[10] = Alexidine 30 ppm, 5 minutes exposure
[11] = Alexidine 30 ppm, 10 minutes exposure
[12] = Alexidine 99 ppm, 1 minute exposure
[13] = Alexidine 99 ppm, 2 minutes exposure
[14] = Alexidine 99 ppm, 5 minutes exposure
[15] = Alexidine 99 ppm, 10 minutes exposure
[16] = Alexidine 30 ppm, 1 minute exposure

Molecule: CCCCC(CC)CNC(=N)NC(=N)NCCCCCCNC(=N)NC(=N)NCC(CC)CCCC (centres unmarked) [Alexidine, 1,1′-Hexamethylene-bis [5-(2-ethylhexyl)biguanide]]
- antimicrobial potency against Herpes Simplex-1, summary in words [1]: potent antimicrobial agent
- Percent Reduction of Herpes simplex virus type 1 ([1]; Alexidine 30 ppm, 1 minute exposure in suspension, vs virus control titer): 99.99%
- Percent Reduction of Herpes simplex virus type 1 [1, 9]: 99.99%
- Percent Reduction of Herpes simplex virus type 1 [1, 10]: 99.9994%
- Percent Reduction of Herpes simplex virus type 1 [1, 11]: ≧100%
- Percent Reduction of Herpes simplex virus type 1 [1, 12]: 99.999%
- Percent Reduction of Herpes simplex virus type 1 [1, 13]: 99.994%
- Percent Reduction of Herpes simplex virus type 1 [1, 14]: 99.9999%
- Percent Reduction of Herpes simplex virus type 1 [1, 15]: ≧100%
- effectiveness against herpes simplex type-1 virus (HSV-1), in words ([1]; at both 30 ppm and 99 ppm): effective agents
- Percent Reduction (%) Adenovirus type 8 [2, 16]: 96.8%
- Percent Reduction (%) Adenovirus type 8 [2, 9]: 94.4%
- Percent Reduction (%) Adenovirus type 8 [2, 10]: 82.2%
- Percent Reduction (%) Adenovirus type 8 [2, 11]: 90.0%
- Percent Reduction (%) Adenovirus type 8 [2, 12]: 82.2%
- Percent Reduction (%) Adenovirus type 8 [2, 13]: 82.2%
- Percent Reduction (%) Adenovirus type 8 [2, 14]: 90.0%
- Percent Reduction (%) Adenovirus type 8 [2, 15]: 90.0%
- effectiveness against Adenovirus Type-8, in words ([2]; at both 30 ppm and 99 ppm): somewhat effective
- Percent Reduction (%) Adenovirus type 4 [3, 16]: 43.8%
- Percent Reduction (%) Adenovirus type 4 [3, 10]: 82.2%
- Percent Reduction (%) Adenovirus type 4 [3, 11]: 68.4%
- Percent Reduction (%) Adenovirus type 4 [3, 12]: 68.4%
- Percent Reduction (%) Adenovirus type 4 [3, 14]: 43.8%
- Percent Reduction (%) Adenovirus type 4 [3, 15]: 68.4%
- effectiveness against Adenovirus Type-4, in words ([3]; at both 30 ppm and 99 ppm): somewhat effective
- effectiveness against the tested strain of Adenovirus Type-19, in words [4]: did not appear to be effective
- Percent Reduction (%) Adenovirus type 19 ([4]; Alexidine 30 ppm): No reduction
- Percent Reduction (%) Adenovirus type 19 ([4]; Alexidine 99 ppm): No reduction
- Percent Reduction (%) Cytomegalovirus [5, 16]: 43.8%
- Percent Reduction (%) Cytomegalovirus [5, 9]: 68.4%
- Percent Reduction (%) Cytomegalovirus [5, 11]: 43.8%
- Percent Reduction (%) Cytomegalovirus [5, 12]: 98.2%
- Percent Reduction (%) Cytomegalovirus [5, 13]: 99.0%
- Percent Reduction (%) Cytomegalovirus [5, 14]: 99.8%
- Percent Reduction (%) Cytomegalovirus [5, 15]: 99.98%
- effectiveness against Cytomegalovirus, in words ([5]; at both 30 ppm and 99 ppm): somewhat effective

Molecule: N=C(NCCCCCCNC(=N)NC(=N)Nc1ccc(Cl)cc1)NC(=N)Nc1ccc(Cl)cc1 [chlorhexidine gluconate, 1,1′-hexamethylene-bis[5-(p-chlorophenyl)biguanide]]
- response of Acanthamoeba keratitis to treatment [6]: respond well

Molecule: poly(hexamethylene biguanide) [polyhexamethylene biguanide]
- response of Acanthamoeba keratitis to treatment [6]: respond well
- treatment of recurrences of Acanthamoeba keratitis [7]: successfully treated
- efficacy in experimental Aspergillus keratitis [8]: moderately effective
